Test results as given in PMC11350787, “Antimicrobial Properties and Cytotoxicity of LL-37-Derived Synthetic Peptides to Treat Orthopedic Infections” (Antibiotics, 2024).
In brackets after ≈: the same amount, converted by molar mass. Peptide text beside a SMILES is read from it.

Assays:
S. aureus Sau89 (CI) = details: S. aureus Sau89 clinical isolate; triplicate
From the text: (§1) A total of 18 bacterial strains relevant to orthopedic infections were used for microbiological tests, including 8 ATCC (American Type Culture Collection, ATCC, Manassas, VA, USA) and 10 clinical isolates (CI) from the Laboratory of Clinical Chemistry and Microbiology, IRCCS Ospedale Galeazzi–Sant’Ambrogio of Milan (Italy) strain collection. The ATCC strains were used for the first screening (MIC/MBC) of all the AMPs produced, while the clinical isolates were used for further MIC/MBC assays on selected AMPs. Among CI, S. epidermidis GOI1153754-03-14 has been already characterized and used in previous studies. All the strains were stocked at −80°C and working stocks were stored at −20 °C. At the occurrence, the bacteria were resuscitated in Brain Hearth Infusion (BHI, Millipore, Milan, Italy) broth at 37 °C for 18 h from the working stocks.
(§2) To determine the minimum inhibitory concentration (MIC) and the minimum bactericidal concentration (MBC), ISO20776-1 and Clinical and Laboratory Standards Institute guidelines were followed. A commercial synthetic LL-37 (Aurogene, Rome, Italy) was used as the control in the MIC and MBC assays. A stock solution of each AMP was prepared at 600 µg/mL to achieve a final concentration of 300 µg/mL. […] The MIC was determined according to the aforementioned standard guidelines. The MBC was determined by plating 2 µL of culture from each well of the MIC plates on a Tryptic Soy Agar (TSA, Millipore, Milan, Italy) plate and incubated for 24 h at 37 °C. The concentration at which there was no growth was recorded as MBC. Each experiment was carried out in triplicate. Representative MIC and MBC values for vancomycin and gentamicin were assessed to offer a benchmark comparison for the AMPs. Quality control was conducted with Staphylococcus aureus ATCC 29,213 and vancomycin according to EUCAST guidelines.

E. coli Eco53 (CI) = details: E. coli Eco53 clinical isolate; triplicate
From the text: as §1, §2

P. aeruginosa Pae61 (CI) = details: P. aeruginosa Pae61 clinical isolate; triplicate
From the text: as §1, §2

P. aeruginosa Pae2 (CI) = details: P. aeruginosa Pae2 clinical isolate; triplicate
From the text: as §1, §2

E. coli Eco61 (CI) = details: E. coli Eco61 clinical isolate; triplicate
From the text: as §1, §2

E. coli Eco75 (CI) = details: E. coli Eco75 clinical isolate; triplicate
From the text: as §1, §2

S. aureus Sau221 (CI) = details: S. aureus Sau221 clinical isolate; triplicate
From the text: as §1, §2

S. aureus Sau39 (CI) = details: S. aureus Sau39 clinical isolate; triplicate
From the text: as §1, §2

P. aeruginosa Pae82 (CI) = details: P. aeruginosa Pae82 clinical isolate; triplicate
From the text: as §1, §2

[1] = tested on: S. epidermidis GOI1153754-03-14 (CI); experiment: microbe, parasite or virus in culture
From the text: as §1, §2

S. aureus ATCC 25923 = experiment: microbe, parasite or virus in culture
From the text: as §1, §2

[2] = tested on: S. epidermidis ATCC 14990; experiment: microbe, parasite or virus in culture
From the text: as §1, §2

[3] = tested on: S. epidermidis ATCC 35984; experiment: microbe, parasite or virus in culture
From the text: as §1, §2

E. coli ATCC 25922 = experiment: microbe, parasite or virus in culture
From the text: as §1, §2

S. aureus ATCC 43300 = experiment: microbe, parasite or virus in culture
From the text: as §1, §2

P. aeruginosa ATCC 27853 = experiment: microbe, parasite or virus in culture
From the text: as §1, §2

S. aureus ATCC 49230 = experiment: microbe, parasite or virus in culture
From the text: as §1, §2

## CC[C@H](C)[C@H](NC(=O)[C@H](CCCCN)NC(=O)[C@H](CCC(=O)O)NC(=O)[C@H](CCCCN)NC(=O)[C@H](CO)NC(=O)[C@H](CCCCN)NC(=O)[C@H](CCCNC(=N)N)NC(=O)[C@H](Cc1ccccc1)NC(=O)[C@H](Cc1ccccc1)NC(=O)[C@H](CC(=O)O)NC(=O)CNC(=O)[C@H](CC(C)C)NC(=O)[C@@H](N)CC(C)C)C(=O)NCC(=O)N[C@@H](CCCCN)C(=O)N[C@@H](CCC(=O)O)C(=O)N[C@@H](Cc1ccccc1)C(=O)N[C@@H](CCCCN)C(=O)N[C@@H](CCCNC(=N)N)C(=O)N[C@H](C(=O)N[C@H](C(=O)N[C@@H](CCC(N)=O)C(=O)N[C@@H](CCCNC(=N)N)C(=O)N[C@H](C(=O)N[C@@H](CCCCN)C(=O)N[C@@H](CC(=O)O)C(=O)N[C@@H](Cc1ccccc1)C(=O)N[C@@H](CC(C)C)C(=O)N[C@@H](CCCNC(=N)N)C(=O)N[C@@H](CC(N)=O)C(=O)N[C@@H](CC(C)C)C(=O)N[C@H](C(=O)N1CCC[C@H]1C(=O)N[C@@H](CCCNC(=N)N)C(=O)N[C@H](C(=O)N[C@@H](CCC(=O)O)C(=O)N[C@@H](CO)C(=O)O)[C@@H](C)O)C(C)C)[C@@H](C)CC)C(C)C)[C@@H](C)CC [cLL-37, reference compound]
S. aureus Sau89 (CI)
  Minimum Bactericidal Concentration (MBC): >300.00 µg/mL
  Minimum Inhibitory Concentration (MIC): >300.00 µg/mL
E. coli Eco53 (CI)
  Minimum Bactericidal Concentration (MBC): 300.00 µg/mL
  Minimum Inhibitory Concentration (MIC): 37.50 µg/mL
P. aeruginosa Pae61 (CI)
  Minimum Bactericidal Concentration (MBC): 150.00 µg/mL
  Minimum Inhibitory Concentration (MIC): 37.50 µg/mL
P. aeruginosa Pae2 (CI)
  Minimum Bactericidal Concentration (MBC): 75.00 µg/mL
  Minimum Inhibitory Concentration (MIC): 75.00 µg/mL
E. coli Eco61 (CI)
  Minimum Bactericidal Concentration (MBC): 75.00 µg/mL
  Minimum Inhibitory Concentration (MIC): 37.50 µg/mL
E. coli Eco75 (CI)
  Minimum Bactericidal Concentration (MBC): 300.00 µg/mL
  Minimum Inhibitory Concentration (MIC): 37.50 µg/mL
S. aureus Sau221 (CI)
  Minimum Bactericidal Concentration (MBC): >300.00 µg/mL
  Minimum Inhibitory Concentration (MIC): >300.00 µg/mL
S. aureus Sau39 (CI)
  Minimum Bactericidal Concentration (MBC): >300.00 µg/mL
  Minimum Inhibitory Concentration (MIC): 150.00 µg/mL
P. aeruginosa Pae82 (CI)
  Minimum Bactericidal Concentration (MBC): 75.00 µg/mL
  Minimum Inhibitory Concentration (MIC): 37.50 µg/mL
[1]; S. epidermidis GOI1153754-03-14 clinical isolate, triplicate
  Minimum Bactericidal Concentration (MBC): >300.00 µg/mL
S. aureus ATCC 25923; S. aureus 25923, ISO20776-1/CLSI, triplicate
  Minimum Inhibitory Concentration (MIC): 37.50 µg/mL
S. aureus ATCC 25923; S. aureus 25923, plated on TSA, 24 h 37 °C, triplicate
  Minimum Bactericidal Concentration (MBC): >300.00 µg/mL
[2]; S. epidermidis 14990, 2 µL from MIC wells plated on TSA, 24 h 37 °C, triplicate
  Minimum Bactericidal Concentration (MBC): 75.00 µg/mL
[2]; S. epidermidis 14990, ISO20776-1/CLSI, triplicate
  Minimum Inhibitory Concentration (MIC): 75.00 µg/mL
[3]; S. epidermidis 35984, ISO20776-1/CLSI, triplicate
  Minimum Inhibitory Concentration (MIC): 9.38 µg/mL
[3]; S. epidermidis 35984, plated on TSA, 24 h 37 °C, triplicate
  Minimum Bactericidal Concentration (MBC): >300.00 µg/mL
E. coli ATCC 25922; E. coli 25922, plated on TSA, 24 h 37 °C, triplicate
  Minimum Bactericidal Concentration (MBC): 75.00 µg/mL
S. aureus ATCC 43300; S. aureus 43300, ISO20776-1/CLSI, triplicate
  Minimum Inhibitory Concentration (MIC): 75.00 µg/mL
S. aureus ATCC 43300; S. aureus 43300, plated on TSA, 24 h 37 °C, triplicate
  Minimum Bactericidal Concentration (MBC): >300.00 µg/mL
P. aeruginosa ATCC 27853; P. aeruginosa 27853, ISO20776-1/CLSI, triplicate
  Minimum Inhibitory Concentration (MIC): 37.50 µg/mL
P. aeruginosa ATCC 27853; P. aeruginosa 27853, plated on TSA, 24 h 37 °C, triplicate
  Minimum Bactericidal Concentration (MBC): 75.00 µg/mL
S. aureus ATCC 49230; S. aureus 49230, ISO20776-1/CLSI, triplicate
  Minimum Inhibitory Concentration (MIC): 75.00 µg/mL
S. aureus ATCC 49230; S. aureus 49230, plated on TSA, 24 h 37 °C, triplicate
  Minimum Bactericidal Concentration (MBC): >300.00 µg/mL

## CNC(C)C1CCC(N)C(OC2C(N)CC(N)C(OC3OCC(C)(O)C(NC)C3O)C2O)O1 (stereo not shown) [Gen, gentamicin]
[1]; S. epidermidis GOI1153754-03-14
  Susceptibility category by MIC (EUCAST clinical breakpoints tables, v. 14): R
[1]; Staphylococcus epidermidis, read-out: Minimum Bactericidal Concentration (MBC)
  MBC: > 20 µg/mL
[1]; Staphylococcus epidermidis, read-out: Minimum Inhibitory Concentration (MIC)
  MIC: > 20 µg/mL
S. aureus ATCC 25923; S. aureus 25923
  Susceptibility category by MIC (EUCAST clinical breakpoints tables, v. 14): S
S. aureus ATCC 25923; Staphylococcus aureus, ATCC25923, 24 h, read-out: Minimum Bactericidal Concentration (MBC)
  MBC: 2.5 µg/mL (≈ 5.23 µM)
S. aureus ATCC 25923; Staphylococcus aureus, ATCC25923, read-out: Minimum Inhibitory Concentration (MIC)
  MIC: 0.6 µg/mL (≈ 1.26 µM)
E. coli ATCC 25922; E. coli 25922
  Susceptibility category by MIC (EUCAST clinical breakpoints tables, v. 14): S
E. coli ATCC 25922; Escherichia coli, ATCC25922, 24 h, read-out: Minimum Bactericidal Concentration (MBC)
  MBC: 2.5 µg/mL (≈ 5.23 µM)
E. coli ATCC 25922; Escherichia coli, ATCC25922, read-out: Minimum Inhibitory Concentration (MIC)
  MIC: 0.6 µg/mL (≈ 1.26 µM)
S. aureus ATCC 43300; S. aureus 43,300 as printed in text
  Susceptibility category by MIC (EUCAST clinical breakpoints tables, version 14): S
S. aureus ATCC 43300; Staphylococcus aureus, ATCC43300, 24 h, read-out: Minimum Bactericidal Concentration (MBC)
  MBC: 2.5 µg/mL (≈ 5.23 µM)
S. aureus ATCC 43300; Staphylococcus aureus, ATCC43300, read-out: Minimum Inhibitory Concentration (MIC)
  MIC: 0.6 µg/mL (≈ 1.26 µM)
P. aeruginosa ATCC 27853; P. aeruginosa 27853
  Susceptibility category by MIC (EUCAST clinical breakpoints tables, v. 14): S
P. aeruginosa ATCC 27853; Pseudomonas aeruginosa, ATCC27853, 24 h, read-out: Minimum Bactericidal Concentration (MBC)
  MBC: 2.5 µg/mL (≈ 5.23 µM)
P. aeruginosa ATCC 27853; Pseudomonas aeruginosa, ATCC27853, read-out: Minimum Inhibitory Concentration (MIC)
  MIC: 0.6 µg/mL (≈ 1.26 µM)

## CC[C@H](C)[C@H](NC(=O)[C@H](CCCCN)NC(=O)[C@H](CCC(=O)O)NC(=O)[C@H](CCCCN)NC(=O)[C@@H](N)CO)C(=O)NCC(=O)N[C@@H](CCCCN)C(=O)N[C@@H](CCC(=O)O)C(=O)N[C@@H](Cc1ccccc1)C(=O)N[C@@H](CCCCN)C(=O)N[C@@H](CCCNC(=N)N)C(=O)N[C@H](C(=O)N[C@H](C(=O)N[C@@H](CCC(N)=O)C(=O)N[C@@H](CCCNC(=N)N)C(=O)N[C@H](C(=O)N[C@@H](CCCCN)C(=O)N[C@@H](CC(=O)O)C(=O)N[C@@H](Cc1ccccc1)C(=O)N[C@@H](CC(C)C)C(=O)N[C@@H](CCCNC(=N)N)C(=O)N[C@@H](CC(N)=O)C(=O)N[C@@H](CC(C)C)C(=O)N[C@H](C(N)=O)C(C)C)[C@@H](C)CC)C(C)C)[C@@H](C)CC [SK-24] (H-SKEKIGKEFKRIVQRIKDFLRNLV-NH2)
S. aureus ATCC 25923; ATCC 25923, 18 h
  Minimum Inhibitory Concentration (MIC): 150.00 µg/mL
S. aureus ATCC 25923; ATCC 25923, 24 h
  Minimum Bactericidal Concentration (MBC): >300.00 µg/mL
[2]; ATCC 14990, 18 h
  Minimum Inhibitory Concentration (MIC): 18.75 µg/mL
[2]; ATCC 14990, 24 h
  Minimum Bactericidal Concentration (MBC): 150.00 µg/mL
[3]; ATCC 35984, 18 h
  Minimum Inhibitory Concentration (MIC): 37.50 µg/mL
[3]; ATCC 35984, 24 h
  Minimum Bactericidal Concentration (MBC): 300.00 µg/mL
E. coli ATCC 25922; ATCC 25922, 18 h
  Minimum Inhibitory Concentration (MIC): 75.00 µg/mL
E. coli ATCC 25922; ATCC 25922, 24 h
  Minimum Bactericidal Concentration (MBC): 75.00 µg/mL
S. aureus ATCC 43300; ATCC 43300, 18 h
  Minimum Inhibitory Concentration (MIC): 150.00 µg/mL
S. aureus ATCC 43300; ATCC 43300, 24 h
  Minimum Bactericidal Concentration (MBC): >300.00 µg/mL
P. aeruginosa ATCC 27853; ATCC 27853, 18 h
  Minimum Inhibitory Concentration (MIC): 150.00 µg/mL
P. aeruginosa ATCC 27853; ATCC 27853, 24 h
  Minimum Bactericidal Concentration (MBC): 150.00 µg/mL
S. aureus ATCC 49230; ATCC 49230, 18 h
  Minimum Inhibitory Concentration (MIC): 75.00 µg/mL
S. aureus ATCC 49230; ATCC 49230, 24 h
  Minimum Bactericidal Concentration (MBC): >300.00 µg/mL
